In one data set the target is T1, FAPα (Homo sapiens, UniProt Q12884).
T1 sequence (Q12884 1-760): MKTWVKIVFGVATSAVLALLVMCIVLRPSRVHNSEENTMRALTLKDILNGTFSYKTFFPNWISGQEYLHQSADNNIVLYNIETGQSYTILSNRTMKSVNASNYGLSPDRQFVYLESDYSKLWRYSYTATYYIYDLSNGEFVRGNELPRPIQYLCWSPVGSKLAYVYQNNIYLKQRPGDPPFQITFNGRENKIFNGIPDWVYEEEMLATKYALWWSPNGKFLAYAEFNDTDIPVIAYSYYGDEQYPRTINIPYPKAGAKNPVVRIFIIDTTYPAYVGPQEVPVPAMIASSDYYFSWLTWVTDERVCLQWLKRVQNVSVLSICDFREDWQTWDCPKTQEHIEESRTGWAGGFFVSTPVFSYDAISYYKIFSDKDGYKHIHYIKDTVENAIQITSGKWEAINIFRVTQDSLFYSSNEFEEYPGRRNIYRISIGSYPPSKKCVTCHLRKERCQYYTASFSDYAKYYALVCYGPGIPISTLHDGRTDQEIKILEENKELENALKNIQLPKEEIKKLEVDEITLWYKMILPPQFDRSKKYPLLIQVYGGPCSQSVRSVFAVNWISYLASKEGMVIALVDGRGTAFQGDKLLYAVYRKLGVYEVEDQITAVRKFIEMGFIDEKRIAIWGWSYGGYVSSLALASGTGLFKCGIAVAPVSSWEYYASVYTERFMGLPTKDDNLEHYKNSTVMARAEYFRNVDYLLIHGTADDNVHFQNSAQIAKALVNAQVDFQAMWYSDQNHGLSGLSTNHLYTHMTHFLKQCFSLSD
The experiment in a line: FAPα enzyme activity test. The note with it: substrate Z-Gly-Pro-AMC, 37°C. Type of data set: biochemical. Here is the method: The substrate (Z-Gly-Pro-AMC) was diluted with DMSO to prepare a 0.5 mM stock solution. Before each experiment, the 0.5 mM stock solution was diluted with PBS to 50 µM for later use. The FAPα protein was diluted with PBS to 0.5 ng/µl for later use. […] The test compounds and positive control were subjected to a 5-fold serial dilution with PBS to obtain 8 gradients for later use, with the highest concentration being 10 µM, and the lowest concentration being […]. Test method: 85 µl of the FAPα dilution and 10 µl of the compound dilution were added to a microplate, uniformly mixed and incubated at 37°C for 10 min. Then, 5 µl of 50 µM substrate was added, uniformly mixed and incubated at 37°C for 10 min. The microplate was read on a microplate reader, with an excitation wavelength of 380 nm and an emission wavelength of 465 nm.

The next data set deals with U-87 MG cells. The note with it: mouse, in vivo; for Tumour/kidney: B-NDG, iv.
Another data set is described as follows: in vivo. The note with it: B-NDG, mouse, iv, total radioactivity, Tumour/kidney.

Read-outs that look alike come from different tables or passages of the source. Numbered stars: 1 amine (or outer) side, 2 acyl side, 3 side chain; on linkers, the order of the positions; unused ones are H or OH. Bridge positions count the residues as written; N and C are the ends. Square brackets hold non-standard residues; d marks the D form. Peptide text beside a SMILES is read from it. * marks the point of attachment. TBMB(SCH2CH2NH-DOTA) = O=C(O)CN1CCN(CC(=O)O)CCN(CC(=O)NCCSCc2cc(C[*:1])cc(C[*:2])c2)CCN(CC(=O)O)CC1; X1 = O=C(O)CN1CCN(CC(=O)O)CCN(CC(=O)NCCSCc2cc(C[*:1])cc(C[*:2])c2)CC1; Phe(2-CF3) = N[C@@H](Cc1ccccc1C(F)(F)F)C(=O)O; Pro(trans-4-F) = O=C(O)[C@@H]1C[C@@H](F)CN1; Phe(3-F) = N[C@@H](Cc1cccc(F)c1)C(=O)O; Phe(4-F) = N[C@@H](Cc1ccc(F)cc1)C(=O)O; Phe(2-F) = N[C@@H](Cc1ccccc1F)C(=O)O; Hyp = O=C(O)[C@@H]1C[C@@H](O)CN1; Hexanoyl = CCCCCC(=O)*; Aib = CC(C)(N)C(=O)O

Results on 15 compounds are retold here after patent EP4745151A1, “FIBROBLAST ACTIVATION PROTEIN LIGAND AND USE THEREOF” (Jiangsu Hengrui Pharmaceuticals Co., Ltd., priority 2023, dated 2025).

Procedure for U-87 MG cells: (§1) Experimental animals: Germline: B-NDG (Biocytogen Jiangsu Co., Ltd.); Age: 5-8 weeks old; Body weight: 20-24 g.
(§2) A sufficient quantity of U-87 MG cells was prepared and inoculated into the posterior position of the right forelimb of B-NDG mice in an inoculation volume of 100 µl, containing 50% Matrigel and 5 × 10^6 cells. After inoculation, the tumour volume and animal body weight were monitored twice a week. Model mice with a tumour volume between 200 and 500 m^3 were selected for enrolment in this experiment and randomly grouped on the basis of tumour volume.
Procedure for in vivo: as §1, §2

The IC50 is the point on the concentration scale where inhibition reaches its midpoint. A low value points to inhibition by little substance. Compound `CCCCCC(=O)N[C@H]1CSCc2cc(CSCCNC(=O)CN3CCN(CC(=O)O)CCN(CC(=O)O)CC3)cc(c2)CSC[C@@H](C(=O)O)NC(=O)[C@H](Cc2ccccc2)NC(=O)[C@H](CCC(N)=O)NC(=O)[C@H]([C@@H](C)O)NC(=O)[C@@H]2C[C@@H](O)CN2C(=O)[C@@H]2CCCN2C(=O)C(C)(C)NC1=O` [NOTA-05] (Hexanoyl-C[Aib]P[Hyp]TQFC-OH; linker 1-8 via X1) had an IC50 on FAPα of 0.45 nM. Consider `CCCCCC(=O)N[C@H]1CSCc2cc(CSCCNC(=O)CN3CCN(CC(=O)O)CCN(CC(=O)O)CC3)cc(c2)CSC[C@@H](C(=O)O)NC(=O)[C@H](Cc2ccccc2)NC(=O)[C@H](CCC(N)=O)NC(=O)[C@H]([C@@H](C)O)NC(=O)[C@@H]2CCCN2C(=O)[C@@H]2CCCN2C1=O` [Al^18F-NOTA-2286, reference compound], for which the values for the Tumour/kidney in the data set on U-87 MG cells (0.5 h), with U-87 MG cells (1.5 h) and in the data set on U-87 MG cells (3 h) were 2.57±0.09, 11.24±1.79 and 10.06±1.60, respectively. In turn, `CCCCCC(=O)N[C@H]1CSCc2cc(CSCCNC(=O)CN3CCN(CC(=O)O)CCN(CC(=O)O)CCN(CC(=O)O)CC3)cc(c2)CSC[C@@H](C(=O)O)NC(=O)[C@H](Cc2ccccc2)NC(=O)[C@H](CCC(N)=O)NC(=O)[C@H]([C@@H](C)O)NC(=O)[C@@H]2CCCN2C(=O)[C@@H]2CCCN2C1=O` [FAP-2286, reference compound] registered a half-maximal inhibitory concentration (IC50) on FAPα of 11.7 nM.

As for `CCCCCC(=O)N[C@H]1CSCc2cc(CSCCNC(=O)CN3CCN(CC(=O)O)CCN(CC(=O)O)CCN(CC(=O)O)CC3)cc(c2)CSC[C@@H](C(=O)O)NC(=O)[C@H](Cc2cccc(F)c2)NC(=O)[C@H](CCC(N)=O)NC(=O)[C@H]([C@@H](C)O)NC(=O)[C@@H]2C[C@@H](O)CN2C(=O)[C@@H]2CCCN2C(=O)C(C)(C)NC1=O` [DOTA-07] (Hexanoyl-C[Aib]P[Hyp]TQ[Phe(3-F)]C-OH; linker 1-8 via TBMB(SCH2CH2NH-DOTA)), the IC50 at FAPα amounted to 1.5 nM. In turn, `CCCCCC(=O)N[C@H]1CSCc2cc(CSCCNC(=O)CN3CCN(CC(=O)O)CCN(CC(=O)O)CCN(CC(=O)O)CC3)cc(c2)CSC[C@@H](C(=O)O)NC(=O)[C@H](Cc2ccccc2F)NC(=O)[C@H](CCC(N)=O)NC(=O)[C@H]([C@@H](C)O)NC(=O)[C@@H]2C[C@@H](O)CN2C(=O)[C@@H]2CCCN2C(=O)C(C)(C)NC1=O` [DOTA-06] (Hexanoyl-C[Aib]P[Hyp]TQ[Phe(2-F)]C-OH; linker 1-8 via TBMB(SCH2CH2NH-DOTA)) had an IC50 on FAPα of 0.93 nM. In the case of `CCCCCC(=O)N[C@H]1CSCc2cc(CSCCNC(=O)CN3CCN(CC(=O)O)CCN(CC(=O)O)CC3)cc(c2)CSC[C@@H](C(=O)O)NC(=O)[C@H](Cc2ccccc2)NC(=O)[C@H](CCC(N)=O)NC(=O)[C@H]([C@@H](C)O)NC(=O)[C@@H]2CCCN2C(=O)[C@@H]2CCCN2C1=O` [NOTA-2286, reference compound], inhibition on FAPα was half-maximal at 0.59 nM (IC50). Turning to `CCCCCC(=O)N[C@H]1CSCc2cc(CSCCNC(=O)CN3CCN(CC(=O)O)CCN(CC(=O)O)CCN(CC(=O)O)CC3)cc(c2)CSC[C@@H](C(=O)O)NC(=O)[C@H](Cc2ccccc2)NC(=O)[C@H](CCC(N)=O)NC(=O)[C@H]([C@@H](C)O)NC(=O)[C@@H]2CCCN2C(=O)[C@@H]2CCCN2C1=O` [^68Ga-FAP-2286, metal not drawn], in “in vivo”, the tissue to tissue ratio at 1 h came out at 1.56 ± 0.11 and the tissue to tissue ratio at 3 h is 0.87 ± 0.14.

As for `CCCCCC(=O)N[C@H]1CSCc2cc(CSCCNC(=O)CN3CCN(CC(=O)O)CCN(CC(=O)O)CC3)cc(c2)CSC[C@@H](C(=O)O)NC(=O)[C@H](Cc2ccccc2)NC(=O)[C@H](CCC(N)=O)NC(=O)[C@H]([C@@H](C)O)NC(=O)[C@@H]2CCCN2C(=O)[C@@H]2CCCN2C1=O` [^68Ga-NOTA-2286, metal not drawn, reference compound], in the data set “in vivo”, the tissue to tissue ratio at 0.5 h stood at 1.59 ± 0.55. For the same compound, the results for the Tumour/kidney with U-87 MG cells (1.5 h) and in the data set with U-87 MG cells (3 h) were 1.77±0.31 and 2.43±1.04, respectively. At FAPα, `CCCCCC(=O)N[C@H]1CSCc2cc(CSCCNC(=O)CN3CCN(CC(=O)O)CCN(CC(=O)O)CCN(CC(=O)O)CC3)cc(c2)CSC[C@@H](C(=O)O)NC(=O)[C@H](Cc2ccc(F)cc2)NC(=O)[C@H](CCC(N)=O)NC(=O)[C@H]([C@@H](C)O)NC(=O)[C@@H]2C[C@@H](O)CN2C(=O)[C@@H]2CCCN2C(=O)C(C)(C)NC1=O` [DOTA-08] (Hexanoyl-C[Aib]P[Hyp]TQ[Phe(4-F)]C-OH; linker 1-8 via TBMB(SCH2CH2NH-DOTA)) displayed an IC50 of 0.53 nM. For `CCCCCC(=O)N[C@H]1CSCc2cc(CSCCNC(=O)CN3CCN(CC(=O)O)CCN(CC(=O)O)CC3)cc(c2)CSC[C@@H](C(=O)O)NC(=O)[C@H](Cc2ccccc2F)NC(=O)[C@H](CCC(N)=O)NC(=O)[C@H]([C@@H](C)O)NC(=O)[C@@H]2C[C@@H](O)CN2C(=O)[C@@H]2CCCN2C(=O)C(C)(C)NC1=O` [NOTA-06] (Hexanoyl-C[Aib]P[Hyp]TQ[Phe(2-F)]C-OH; linker 1-8 via X1), the IC50 against FAPα amounted to 0.088 nM. The same measure, in the same setting: under `CCCCCC(=O)N[C@H]1CSCc2cc(CSCCNC(=O)CN3CCN(CC(=O)O)CCN(CC(=O)O)CCN(CC(=O)O)CC3)cc(c2)CSC[C@@H](C(=O)O)NC(=O)[C@H](Cc2ccccc2C(F)(F)F)NC(=O)[C@H](CCC(N)=O)NC(=O)[C@H]([C@@H](C)O)NC(=O)[C@@H]2C[C@@H](O)CN2C(=O)[C@@H]2CCCN2C(=O)C(C)(C)NC1=O` [DOTA-09] (Hexanoyl-C[Aib]P[Hyp]TQ[Phe(2-CF3)]C-OH; linker 1-8 via TBMB(SCH2CH2NH-DOTA)) stands 0.28 nM; under `CCCCCC(=O)N[C@H]1CSCc2cc(CSCCNC(=O)CN3CCN(CC(=O)O)CCN(CC(=O)O)CCN(CC(=O)O)CC3)cc(c2)CSC[C@@H](C(=O)O)NC(=O)[C@H](Cc2ccccc2)NC(=O)[C@H](CCC(N)=O)NC(=O)[C@H]([C@@H](C)O)NC(=O)[C@@H]2C[C@@H](F)CN2C(=O)[C@@H]2CCCN2C(=O)C(C)(C)NC1=O` [DOTA-12] (Hexanoyl-C[Aib]P[Pro(trans-4-F)]TQFC-OH; linker 1-8 via TBMB(SCH2CH2NH-DOTA)), 1.08 nM; under `CCCCCC(=O)N[C@H]1CSCc2cc(CSCCNC(=O)CN3CCN(CC(=O)O)CCN(CC(=O)O)CCN(CC(=O)O)CC3)cc(c2)CSC[C@@H](C(=O)O)NC(=O)[C@H](Cc2ccccc2F)NC(=O)[C@H](CCC(N)=O)NC(=O)[C@H]([C@@H](C)O)NC(=O)[C@@H]2C[C@@H](F)CN2C(=O)[C@@H]2CCCN2C(=O)C(C)(C)NC1=O` [DOTA-13] (Hexanoyl-C[Aib]P[Pro(trans-4-F)]TQ[Phe(2-F)]C-OH; linker 1-8 via TBMB(SCH2CH2NH-DOTA)), 1.09 nM. With `CCCCCC(=O)N[C@H]1CSCc2cc(CSCCNC(=O)CN3CCN(CC(=O)O)CCN(CC(=O)O)CCN(CC(=O)O)CC3)cc(c2)CSC[C@@H](C(=O)O)NC(=O)[C@H](Cc2ccccc2)NC(=O)[C@H](CCC(N)=O)NC(=O)[C@H]([C@@H](C)O)NC(=O)[C@@H]2C[C@@H](O)CN2C(=O)[C@@H]2CCCN2C(=O)C(C)(C)NC1=O` [DOTA-05] (Hexanoyl-C[Aib]P[Hyp]TQFC-OH; linker 1-8 via TBMB(SCH2CH2NH-DOTA)), on FAPα, the IC50 came out at 1.16 nM. `CCCCCC(=O)N[C@H]1CSCc2cc(CSCCNC(=O)CN3CCN(CC(=O)O)CCN(CC(=O)O)CCN(CC(=O)O)CC3)cc(c2)CSC[C@@H](C(=O)O)NC(=O)[C@H](Cc2ccccc2C(F)(F)F)NC(=O)[C@H](CCC(N)=O)NC(=O)[C@H]([C@@H](C)O)NC(=O)[C@@H]2C[C@@H](O)CN2C(=O)[C@@H]2CCCN2C(=O)C(C)(C)NC1=O` [^68Ga-DOTA-09, metal not drawn] (Hexanoyl-C[Aib]P[Hyp]TQ[Phe(2-CF3)]C-OH; linker 1-8 via TBMB(SCH2CH2NH-DOTA)): in “in vivo”, the tissue to tissue ratio at 0.5 h turned out to be 2.81 ± 0.21 and the tissue to tissue ratio at 1.5 h stood at 5.34 ± 0.92. For the same compound, in the data set on U-87 MG cells, the “tumour uptake compared with control” value was “significantly higher”, the “tumour/kidney ratio compared with control” value is “significantly higher” and the “tumour/kidney uptake ratio compared with control” value is “significantly higher”.
